Data taken from PMC11853379, “Glioblastoma Cell Migration, Invasion and Vasculogenic Mimicry Downmodulated by Novel uPAcyclin Derivatives” (Cells, 2025).
Read-outs that look alike come from different tables or passages of the source. Positions of bridges follow the written chain, without caps; N, C: chain ends. Residues, ends and D or L forms follow the SMILES beside them.

What was measured:
Format in all cases: cell-based, human
[1] = test system: U87-MG cells; conditions: 24 h; for reduction of vessel formation (VM, branching points): U87-MG on Geltrex
Method: (§1) The tube formation assay was performed as previously described by Franco et al., using 3 × 10^4 U87-MG and 1.5 × 10^4 U251 cells/sample in the absence or presence of specific effectors included at time 0. The evaluation of vascular-like structures, as the branching points number, was performed using the Inverted Microscope DMI Leica 6000 ([…], Milan, Italy) and assessed in 4/5 random fields using the ImageJ 1.52a Software.
(§2) Here, U87-MG cells were plated onto Geltrex^TM, and the formation of round vascular-type structures was assessed after 24 h (Figure 6A). […] If cells are pretreated with nanomolar concentrations of the indicated cyclic peptides for 40 min at 37 °C prior to the VM assay, the number of intersections decreases. For this assay, the peptides [Ala^2, Ala^5]uPAcyclin, [Ala^1]uPAcyclin [Ala^4]uPAcyclin and [Ala^8]uPAcyclin, in addition to the parent uPAcyclin, were selected based on previous considerations. In the histogram shown in Figure 6B, the number of intersections per field is reported for untreated or peptide-exposed samples. As a reference, the uPAcyclin is indeed able to reduce vessel formation by 40% at 1 nM and by 70% at 100 nM. […] [Ala^2,Ala^5]uPAcyclin and [Ala^8]uPAcyclin are able to reduce VM by 50% at 1 nM and by 70% at 100 nM, confirming that they are both efficient inhibitors of GBM functions supporting malignancy. The formation of VM was also monitored in U251-MG cells, which were seeded under the same conditions employed for U87-MG cells. Representative images, reported in Figure 7A, show the elongated structures obtained after 24 h in Geltrex^TM matrix and their reduction in the cells pre-exposed to uPAcyclin, [Ala^2,Ala^5]uPAcyclin and [Ala^8]uPAcyclin. As shown in the histogram reported in Figure 7B, the uPAcyclin is indeed able to reduce vessel formation by 50% at 1 nM and by 80% at 100 nM. […] It is of note that, unlike [Ala^2,Ala^5]uPAcyclin or [Ala^8]uPAcyclin, [Ala^1]uPAcyclin is ineffective, even if employed at 100 nM.
Figure 6 Inhibition of vasculogenic mimicry by U87-MG glioblastoma cells. (A) Representative images of U87-MG cells cultured in DMEM/10% FBS (no matrix) or seeded onto Geltrex^TM in multiwell-96 (3 × 10^4 cells/well). When specified, cells were pre-treated with diluents (untreated) or with the indicated peptides at the indicated concentrations for 40 min at 37 °C prior to the VM assay. All images are taken after 24 h with the DMI Leica 6000 Inverted Microscope and 50× total magnification; scale bar: 100 μm. (B) The quantitation of branching points, defined as the intersection of at least three tubes (red arrows), was performed at 24 h either in control cells and cells exposed to the peptides and reported in the histogram (** p-value < 0.005; *** p-value < 0.001).

[2] = test system: U87-MG cells; experiment: Cell viability / proliferation, Trypan blue exclusion, U87-MG; conditions: DMEM/10% FBS, 100 nM peptide, 24, 48 and 72 h
Method: (§3) Cell viability was tested in DMEM/10% FBS in the presence of 100 nM uPAcyclin or Ala peptides via a Trypan blue exclusion assay, as previously reported, using 4 × 10^4 U87-MG and U251-MG glioblastoma cells/sample followed for 24, 48 and 72 h.
(§4) To rule out the possibility that the effects of uPAcyclin and Ala peptides could be due to the inhibition of cell proliferation, cell growth in the presence of these peptides was monitored for 24, 48 and 72 h (Supporting Information, Figure S2). U87-MG and U251-MG cells were exposed to diluents or to serum in the presence of 100 nM uPAcyclin, [Ala^1]uPAcyclin, [Ala^4]uPAcyclin, [Ala^8]uPAcyclin and [Ala^2,Ala^5]uPAcyclin (for the peptide choice, see above), and cell viability was tested at the indicated times using Trypan blue (Figure S2A,B). Both cell lines proliferate in culture in the presence of serum (DMEM/10% FBS), but not in a serum-free medium (DMEM). The growth rates of the U87-MG and U251-MG glioblastoma cell lines were similar, regardless of the exposure to 100 nM of uPAcyclin, [Ala^1]uPAcyclin, [Ala^4]uPAcyclin and [Ala^8]uPAcyclin.
(§5) Figure S5. Cell Viability Assay.
(§6) Unaffected proliferation of U87-MG and U251-MG glioblastoma cells exposed to uPacyclin and selected Ala-peptides. 2x104 U87-MG (A) or U251-MG (B) were seeded in 12 well plates for 24 h in DMEM-10% FBS and serum-starved for 24 h. Then, cells were counted (0 h) and grown in DMEM (no serum) or DMEM-10% FBS, in the presence of 100 nM peptides for 24, 48 and 72 h. Histograms represent the average of two separate experiments undertaken in duplicate.
(§7) (1 picture or pasted object on this page, not shown here)

[3] = test system: U251-MG cells; experiment: Vasculogenic mimicry (tube formation) assay, U251-MG on Geltrex; conditions: 24 h
Method: as §1, §2
Figure 7 Inhibition of vasculogenic mimicry by U251-MG glioblastoma cells. (A) Representative images of U251-MG cells cultured in DMEM/10% FBS (no matrix) or seeded onto Geltrex^TM in multiwell-96 (1.5 × 10^4 cells/well). When specified, cells were pretreated with diluents (untreated) or with the indicated peptides at the indicated concentrations for 40 min at 37 °C prior to the VM assay. All images are taken after 24 h with the DMI Leica 6000 Inverted Microscope with 50× total magnification; scale bar: 100 μm. (B) The quantitation and expression of branching points (red arrows), is accomplished as reported in the legend of Figure 6 (*** p-value < 0.001).

[4] = test system: U251-MG cells; experiment: Cell viability / proliferation, Trypan blue exclusion, U251-MG; conditions: DMEM/10% FBS, 100 nM peptide, 24, 48 and 72 h
Method: as §3, §4, §5, §6, §7

SMILES | IC50 [1] [nM] | reduction of vessel formation (VM, branching points) ([1]; 1 nM peptide) [%] | reduction of vessel formation (VM, branching points) ([1]; 100 nM peptide) [%] | growth rate / proliferation rate [2] | inhibition of VM compared to uPAcyclin (in words) [3] | growth rate / proliferation rate [4] | reduction of vessel formation (VM, branching points) ([3]; 1 nM peptide) [%] | reduction of vessel formation (VM, branching points) ([3]; 100 nM peptide) [%]
CC(=O)N[C@@H](CCCCN)C(=O)N[C@@H](C)C(=O)N[C@H]1CCC(=O)NCCCC[C@@H](C(N)=O)NC(=O)[C@H](CC(C)C)NC(=O)[C@H](CCC(=O)O)NC(=O)[C@H](CCC(=O)O)NC(=O)[C@@H]2CCCN2C(=O)[C@H](C)NC(=O)[C@H](CO)NC1=O [[Ala^2,Ala^5]uPAcyclin] (Ac-KAESAPEELK-NH2; lactam 3-10) | < 1 | 50 | 70 | slight but not significant decrease | slightly more effective inhibitors | slight but not significant decrease |  | 
CC(=O)N[C@@H](CCCCN)C(=O)N1CCC[C@H]1C(=O)N[C@H]1CCC(=O)NCCCC[C@@H](C(N)=O)NC(=O)[C@H](CC(C)C)NC(=O)[C@H](CCC(=O)O)NC(=O)[C@H](CCC(=O)O)NC(=O)[C@@H]2CCCN2C(=O)[C@@H]2CCCN2C(=O)[C@H](CO)NC1=O [uPAcyclin] (Ac-KPESPPEELK-NH2; lactam 3-10) |  | 40 | 70 | similar |  | similar | 50 | 80
CC(=O)N[C@@H](CCCCN)C(=O)N1CCC[C@H]1C(=O)N[C@H]1CCC(=O)NCCCC[C@@H](C(N)=O)NC(=O)[C@H](CC(C)C)NC(=O)[C@H](C)NC(=O)[C@H](CCC(=O)O)NC(=O)[C@@H]2CCCN2C(=O)[C@@H]2CCCN2C(=O)[C@H](CO)NC1=O [[Ala^8]uPAcyclin] (Ac-KPESPPEALK-NH2; lactam 3-10) | < 1 | 50 | 70 | similar | slightly more effective inhibitors | similar |  | 
